Each structure is given as a SMILES string.

This assay has as its target T1, human NK3 receptor (Homo sapiens, UniProt P29371).
T1 construct: expressed in transfected cells; host or cells: HEK293 cells (transient expression), membrane preparation
T1 sequence (P29371 1-465): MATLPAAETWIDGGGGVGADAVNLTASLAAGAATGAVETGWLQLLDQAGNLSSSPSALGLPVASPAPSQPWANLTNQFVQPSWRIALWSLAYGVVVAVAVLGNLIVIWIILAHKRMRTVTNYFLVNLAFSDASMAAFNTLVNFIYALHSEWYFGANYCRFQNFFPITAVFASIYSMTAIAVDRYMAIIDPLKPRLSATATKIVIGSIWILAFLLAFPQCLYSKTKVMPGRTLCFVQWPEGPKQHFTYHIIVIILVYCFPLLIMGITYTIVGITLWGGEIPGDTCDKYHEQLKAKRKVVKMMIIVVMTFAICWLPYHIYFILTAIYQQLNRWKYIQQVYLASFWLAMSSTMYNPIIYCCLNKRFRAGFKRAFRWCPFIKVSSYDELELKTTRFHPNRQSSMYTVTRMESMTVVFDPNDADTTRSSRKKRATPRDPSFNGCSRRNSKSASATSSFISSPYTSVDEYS
Put plainly: [3H]SR142801 competition binding assay. The settings on record: hNK3 receptor binding, [3H]SR142801, membranes from HEK293 cells transiently expressing recombinant human NK3 receptor. The protocol: [^3H]SR142801 Competition Binding Assay
hNK3 receptor binding experiment were performed using [^3H]SR142801 (Catalog No. TRK1035, specific activity: 74.0 Ci/mmol, Amersham, GE Healthcare UK limited, Buckinghamshire, UK) and membrane isolated from HEK293 cells transiently expressing recombinant human NK3 receptor. After thawing, the membrane homogenates were centrifuged at 48,000×g for 10 min at 4° C., the pellets were resuspended in the 50 mM Tris-HCl, 4 mM MnCl2, 1 μM phosphoramidon, 0.1% BSA binding buffer at pH 7.4 to a final assay concentration of 5 μg protein/well. For inhibition experiments, membranes were incubated with [^3H]SR142801 at a concentration equal to KD value of radioligand and 10 concentrations of the inhibitory compound (0.0003-10 μM) (in a total reaction volume of 500 μl) for 75 min at room temperature (RT). At the end of the incubation, membranes were filtered onto unitfilter (96-well white microplate with bonded GF/C filter preincubated 1 h in 0.3% PEI+0.3% BSA, Packard BioScience, Meriden, Conn.) with a Filtermate 196 harvester (Packard BioScience) and washed 4 times with ice-cold 50 mM Tris-HCl, pH 7.4 buffer. Nonspecific binding was measured in the presence of 10 μM SB222200 for both radioligands. The radioactivity on the filter was counted (5 min) on a Packard Top-count microplate scintillation counter with quenching correction after addition of 45 μl of microscint 40 (Canberra Packard S. A., Zürich, Switzerland) and shaking for 1 h. Inhibition curves were fitted according to the Hill equation: y=100/(1+(x/IC50)^nH), where nH=slope factor using Excel-fit 4 software (Microsoft). IC50 values were derived from the inhibition curve and the affinity constant (Ki) values were calculated using the Cheng-Prussoff equation Ki=IC50/(1+[L]/KD) where [L] is the concentration of radioligand and KD is its dissociation constant at the receptor, derived from the saturation isotherm. All experiments were performed in duplicate and the mean±standard error (SEM) of the individual Ki values was calculated.
In the case of `CN(Cc1ccc(C(F)(F)F)c(F)c1)[C@H]1CN(C(=O)CCCCC(N)=O)C[C@@H]1c1ccc(Cl)c(Cl)c1` (racemic) [Example 98, 6-{(3SR,4RS)-3-(3,4-Dichloro-phenyl)-4-[(3-fluoro-4-trifluoromethyl-benzyl)-methyl-amino]-pyrrolidin-1-yl}-6-oxo-hexanoic acid amide], the Ki is 0.0527 µM.
For the compound `CN(Cc1ccc(C#N)cc1)[C@H]1CN(C(=O)N2CCN(S(C)(=O)=O)CC2)C[C@@H]1c1ccc(Cl)cc1` (racemic) [Example 26, 4-({[(3RS,4SR)-4-(4-Chloro-phenyl)-1-(4-methanesulfonyl-piperazine-1-carbonyl)-pyrrolidin-3-yl]-methyl-amino}-methyl)-benzonitrile], the Ki came to 0.0825 µM.
Take `CN(Cc1ccc(C(F)(F)F)c(F)c1)[C@H]1CN(C(=O)CN2CCC(C#N)CC2)C[C@@H]1c1ccc(Cl)c(Cl)c1` (racemic) [Example 130, 1-(2-{(3SR,4RS)-3-(3,4-Dichloro-phenyl)-4-[(3-fluoro-4-trifluoromethyl-benzyl)-methyl-amino]-pyrrolidin-1-yl}-2-oxo-ethyl)-piperidine-4-carbonitrile]: the Ki came out at 0.0254 µM.
For `CN(Cc1ccc(C(F)(F)F)c(F)c1)[C@H]1CN(C(=O)C2CCN(C(=O)C3(C)CC3)CC2)C[C@@H]1c1ccc(Cl)c(Cl)c1` (racemic) [Example 149, {(3SR,4RS)-3-(3,4-Dichloro-phenyl)-4-[(3-fluoro-4-trifluoromethyl-benzyl)-methyl-amino]-pyrrolidin-1-yl}-[1-(1-methyl-cyclopropanecarbonyl)-piperidin-4-yl]-methanone], the inhibition constant (Ki) amounted to 0.0031 µM.
In the case of `CC(=O)N[C@H]1CCN(CC(=O)N2C[C@H](c3ccc(Cl)c(Cl)c3)[C@@H](N(C)Cc3ccc(C(F)(F)F)c(F)c3)C2)C1` (mixture of isomers) [Example 133, N-[(S)-1-(2-{(3SR,4RS)-3-(3,4-Dichloro-phenyl)-4-[(3-fluoro-4-trifluoromethyl-benzyl)-methyl-amino]-pyrrolidin-1-yl}-2-oxo-ethyl)-pyrrolidin-3-yl]-acetamide], the Ki worked out at 0.0232 µM.
On to `CN(Cc1ccc(-c2ccccc2)cc1)[C@H]1CN(C(=O)N2CCN(S(C)(=O)=O)CC2)C[C@@H]1c1ccc(Cl)cc1` (racemic) [Example 27, [(3RS,4SR)-3-(Biphenyl-4-ylmethyl-methyl-amino)-4-(4-chloro-phenyl)-pyrrolidin-1-yl]-(4-methanesulfonyl-piperazin-1-yl)-methanone], for which the Ki came out at 0.078 µM.
On to `CN(Cc1ccc(C(F)(F)F)c(F)c1)[C@H]1CN(C(=O)CN2CCS(=O)(=O)CC2)C[C@@H]1c1ccc(Cl)c(Cl)c1` [Example 135, 1-{(3S,4R)-3-(3,4-Dichloro-phenyl)-4-[(3-fluoro-4-trifluoromethyl-benzyl)-methyl-amino]-pyrrolidin-1-yl}-2-(1,1-dioxo-λ^6-thiomorpholin-4-yl)-ethanone], for which the Ki was determined as 0.0437 µM.
With `CN(Cc1ccc(Cl)c(F)c1)[C@H]1CN(C(=O)N2CCN(S(C)(=O)=O)CC2)C[C@@H]1c1ccc(Cl)cc1` (racemic) [Example 29, [(3RS,4SR)-3-[(4-Chloro-3-fluoro-benzyl)-methyl-amino]-4-(4-chloro-phenyl)-pyrrolidin-1-yl]-(4-methanesulfonyl-piperazin-1-yl)-methanone], the Ki worked out at 0.0699 µM.
Turning to `CN(Cc1ccc(C(F)(F)F)c(F)c1)[C@H]1CN(C(=O)N2CCN(CCC#N)CC2)C[C@@H]1c1ccc(Cl)c(Cl)c1` (racemic) [Example 79, 3-(4-{(3SR,4RS)-3-(3,4-Dichloro-phenyl)-4-[(3-fluoro-4-trifluoromethyl-benzyl)-methyl-amino]-pyrrolidine-1-carbonyl}-piperazin-1-yl)-propionitrile], the Ki amounted to 0.0019 µM.
As to `Cc1cc(CN(C)[C@H]2CN(C(=O)N3CCN(S(C)(=O)=O)CC3)C[C@@H]2c2ccc(Cl)c(Cl)c2)ccc1F` (racemic) [Example 43, {(3SR,4RS)-3-(3,4-Dichloro-phenyl)-4-[(4-fluoro-3-methyl-benzyl)-methyl-amino]-pyrrolidin-1-yl}-(4-methanesulfonyl-piperazin-1-yl)-methanone], the Ki was 0.0849 µM.
Take `CC(=O)NC1CCN(CCCCC(=O)N2C[C@H](c3ccc(Cl)c(Cl)c3)[C@@H](N(C)Cc3ccc(C(F)(F)F)c(F)c3)C2)CC1` (racemic) [Example 105, N-[1-(5-{(3SR,4RS)-3-(3,4-Dichloro-phenyl)-4-[(3-fluoro-4-trifluoromethyl-benzyl)-methyl-amino]-pyrrolidin-1-yl}-5-oxo-pentyl)-piperidin-4-yl]-acetamide]: the Ki worked out at 0.0622 µM.
Take `CN(Cc1ccc(C(F)(F)F)c(F)c1)[C@H]1CN(C(=O)CCCCC#N)C[C@@H]1c1ccc(Cl)c(Cl)c1` (racemic) [Example 102, 6-{(3SR,4RS)-3-(3,4-Dichloro-phenyl)-4-[(3-fluoro-4-trifluoromethyl-benzyl)-methyl-amino]-pyrrolidin-1-yl}-6-oxo-hexanenitrile]: the Ki worked out at 0.0708 µM.
Turning to `CN(Cc1ccc(C(F)(F)F)c(F)c1)[C@H]1CN(C(=O)N2CCN(S(C)(=O)=O)CC2)C[C@@H]1c1ccc(Cl)cc1` (racemic) [Example 30, {(3SR,4RS)-3-(4-Chloro-phenyl)-4-[(3-fluoro-4-trifluoromethyl-benzyl)-methyl-amino]-pyrrolidin-1-yl}-(4-methanesulfonyl-piperazin-1-yl)-methanone], the Ki was 0.0284 µM.
The result for `CC(=O)NC1CCN(CC(=O)N2C[C@H](c3ccc(Cl)c(Cl)c3)[C@@H](N(C)Cc3ccc(C(F)(F)F)c(F)c3)C2)CC1` (racemic) [Example 137, N-[1-(2-{(3SR,4RS)-3-(3,4-Dichloro-phenyl)-4-[(3-fluoro-4-trifluoromethyl-benzyl)-methyl-amino]-pyrrolidin-1-yl}-2-oxo-ethyl)-piperidin-4-yl]-acetamide] reads 0.0087 µM; that for `CN(Cc1ccc(C(F)(F)F)c(F)c1)[C@H]1CN(C(=O)CN2CCN(S(=O)(=O)N(C)C)CC2)C[C@@H]1c1ccc(Cl)c(Cl)c1` (racemic) [Example 116, 4-(2-{(3SR,4RS)-3-(3,4-Dichloro-phenyl)-4-[(3-fluoro-4-trifluoromethyl-benzyl)-methyl-amino]-pyrrolidin-1-yl}-2-oxo-ethyl)-piperazine-1-sulfonic acid dimethylamide], 0.0169 µM.
On to `CN(Cc1ccc(C(F)(F)F)c(F)c1)[C@H]1CN(C(=O)CNCCC#N)C[C@@H]1c1ccc(Cl)c(Cl)c1` (racemic) [Example 127, 3-(2-{(3SR,4RS)-3-(3,4-Dichloro-phenyl)-4-[(3-fluoro-4-trifluoromethyl-benzyl)-methyl-amino]-pyrrolidin-1-yl}-2-oxo-ethylamino)-propionitrile], for which the inhibition constant (Ki) came to 0.0997 µM.
With `CN(Cc1ccc2c(c1)OCC2)[C@H]1CN(C(=O)N2CCN(S(C)(=O)=O)CC2)C[C@@H]1c1ccc(Cl)c(Cl)c1` (racemic) [Example 37, {(3SR,4RS)-3-(3,4-Dichloro-phenyl)-4-[(2,3-dihydro-benzofuran-6-ylmethyl)-methyl-amino]-pyrrolidin-1-yl}-(4-methanesulfonyl-piperazin-1-yl)-methanone], the Ki is 0.0762 µM.
Turning to `CN(Cc1ccc(C(F)(F)F)c(F)c1)[C@H]1CN(C(=O)N2CCC(O)(c3ccncc3)CC2)C[C@@H]1c1ccc(Cl)c(Cl)c1` (racemic) [Example 80, {(3SR,4RS)-3-(3,4-Dichloro-phenyl)-4-[(3-fluoro-4-trifluoromethyl-benzyl)-methyl-amino]-pyrrolidin-1-yl}-(4-hydroxy-3,4,5,6-tetrahydro-2H-[4,4′]bipyridinyl-1-yl)-methanone], the inhibitory constant (Ki) is 0.0208 µM.
With `CN(Cc1ccc(C(F)(F)F)c(F)c1)[C@H]1CN(C(=O)N2CCN(S(=O)(=O)N(C)C)CC2)C[C@@H]1c1ccc(Cl)c(Cl)c1` (racemic) [Example 76, 4-{(3SR,4RS)-3-(3,4-Dichloro-phenyl)-4-[(3-fluoro-4-trifluoromethyl-benzyl)-methyl-amino]-pyrrolidine-1-carbonyl}-piperazine-1-sulfonic acid dimethylamide], the Ki came to 0.0018 µM.
